Values after ≈ are worked out from the molar mass of the structure shown.
What was measured:
Assay type in all cases: cell-based
[1] = test system: human osteoblast (KK-3, 18PDL); assay: Determination (3) of bone formation activity (KK-3, 14 days); conditions: Table 40; for ALP: control 0.72 ± 0.17; for P: control 51 ± 5; for Ca: control 90 ± 8
Protocol: (§1) Human osteoblast (KK-3, 18PDL) was cultured in α-MEM containing 10% fetal bovine serum, and when a stable growth was attained, a predetermined concentration of the compound was added in the presence of 2 mM α-glycerophosphoric acid salt, followed by treatment for 14 days. The cell layer was washed with a physioligical salt solution and the alkali phosphatase activity then measured by absorption at OD415. Next, calcium and phosphorus were extracted with a 2N hydrochloric acid solution and quantitated.

[2] = test system: human osteoblast (KK-3, 18PDL); assay: Determination (2) of bone formation activity (KK-3, 14 days); conditions: Table 39; for ALP: control 0.44 ± 0.12; for Ca: control 106 ± 12; for P: control 61 ± 10
Protocol: as §1, with “physiological” for “a physioligical”, “Then,” for “Next,”

L1210 tumor cells = assay: Measurement of anticancer activity (L1210 growth, 2 days, trypan blue); conditions: Mus musculus, 48 h, Table 25, L1210, 2.5×10^4 cells/ml
Protocol: Tumor cells were grown in an RPMI 1640 medium containing of 10% fetal calf serum.
The compound was dissolved in 99.5% ethanol, adjusted before use so that the final concentration of ethanol was 0.1% or less, and added to the medium.
The control was 0.1% ethanol, and L1210 tumor cells were inoculated in the medium in a concentration of 2.5×10^4 cells/ml and grown for 2 days. The number of surviving cells were measured by trypan blue staining.

In the case of `CCCCCC(O)C=CC1C=C(SC)C(=O)C1=CCCCCCC(=O)OC` (stereo not drawn) [drawing 1111, 2-methylthio-5-(6-methoxy-carbonylhexylidene)-4-(3-hydroxy-1-octenyl)-2-cyclo-pentenone], the ALP ([1]; 10^-6 M) is reported as 0.68 ± 0.10 OD 415 nm/dish, the P ([1]; 10^-6 M) is reported as 43 ± 4 μg/dish and the Ca ([1]; 10^-6 M) is reported as 79 μg/dish. The ALP ([1]; 10^-7 M) was 0.73 ± 0.02 OD 415 nm/dish, the P ([1]; 10^-7 M) was 46 ± 2 μg/dish and the Ca ([1]; 10^-7 M) was 78 ± 4 μg/dish.

`CSC1=CC(O)(CCCCOc2ccccc2)/C(=C\C=C\C(O)CCCO)C1=O` (stereo not drawn) [2-methylthio-5-[( -- E)-4,7-dihydroxy-2-heptenylidene]-4-(4-phenoxybutyl)-4-hydroxy-2-cyclopentenone] was tested, and the ALP ([2]; 10^-6 M) was 0.97 OD 415 nm/dish, the Ca ([2]; 10^-6 M) was 168 μg/dish and the ALP ([2]; 10^-7 M) was 0.56 ± 0.08 OD 415 nm/dish. The P ([2]; 10^-7 M) was 64 ± 3 μg/dish, the Ca ([2]; 10^-7 M) was 114 ± 4 μg/dish and the ALP ([2]; 10^-8 M) was 0.24 ± 0.02 OD 415 nm/dish. The P ([2]; 10^-8 M) was 47 ± 2 μg/dish and the Ca ([2]; 10^-8 M) was 87 ± 6 μg/dish.

`CSC1=CC(=CCCCOc2ccccc2)/C(=C/C=C/C(O)CCCO)C1=O` (stereo not drawn) [drawing 1108, 2-methylthio-5-[( -- Z)-4,7-dihydroxy-2-heptenylidene]-4-(4-phenoxybutylidene)-2-cyclopentenone] was tested, and the ALP ([1]; 10^-6 M) was 0.75 ± 0.17 OD 415 nm/dish, the P ([1]; 10^-6 M) was 57 ± 1 μg/dish and the Ca ([1]; 10^-6 M) was 105 μg/dish. It also gave an ALP ([1]; 10^-7 M) of 0.69 ± 0.02 OD 415 nm/dish, a P ([1]; 10^-7 M) of 60 ± 14 μg/dish and a Ca ([1]; 10^-7 M) of 110 ± 30 μg/dish.

With `C[S+]([O-])C1=CC(O)(CCCCOc2ccccc2)/C(=C/C=C/C(O)CCCO)C1=O` (stereo not drawn) [drawing 1109, 2-methylsulfinyl-5-[( -- Z)-4,7-dihydroxy-2-heptenylidene]-4-(4-phenoxybutylidene)-4-hydroxy-2-cyclopentenone] the ALP ([1]; 10^-6 M) was 0.92 ± 0.9 OD 415 nm/dish, the P ([1]; 10^-6 M) was 61 ± 4 μg/dish and the Ca ([1]; 10^-6 M) was 109 μg/dish. It also gave an ALP ([1]; 10^-7 M) of 0.81 ± 0.11 OD 415 nm/dish, a P ([1]; 10^-7 M) of 52 ± 1 μg/dish and a Ca ([1]; 10^-7 M) of 89 ± 1 μg/dish.

Work on `CCCCC1=C(Sc2nccn2C)C(=O)C(=CC=CC(O)CCCO)C1(O)CCCCOc1ccccc1` (stereo not drawn) [drawing 1063] yielded an IC50 (L1210 tumor cells) of 2.3 µg/mL (≈ 4.25 µM).

Molecule `CSC1=CC(CCCCOc2ccccc2)C(=CC=CC(O)CCCO)C1=O` (stereo not drawn) has an IC50 (L1210 tumor cells) of 1.9 µg/mL (≈ 4.72 µM).

`Cn1ccnc1SC1=CC(O)(CCCCOc2ccccc2)C(=CC=CC(O)CCCO)C1=O` (stereo not drawn) [drawing 1062] gave an IC50 (L1210 tumor cells) of 0.15 µg/mL (≈ 0.31 µM).

`CSC1=CC(=CCCCOc2ccccc2)C(=C/C=C\C(O)CCCO)C1=O` (stereo not drawn) [2-methylthio-5-[( -- Z)-4,7-dihydroxy-2-heptenylidene]-4-(4-phenoxybutylidene)-2-cyclopentenone] was tested, and the ALP ([1]; 10^-6 M) was 0.94 ± 0.11 OD 415 nm/dish, the P ([1]; 10^-6 M) was 60 ± 0.5 μg/dish and the Ca ([1]; 10^-6 M) was 109 μg/dish. The ALP ([1]; 10^-7 M) was 0.94 ± 0.07 OD 415 nm/dish, the P ([1]; 10^-7 M) was 48 ± 4 μg/dish and the Ca ([1]; 10^-7 M) was 85 ± 10 μg/dish.

`CSC1=CC(O)C(=CC=CC(O)CCCO)C1=O` (stereo not drawn) [drawing 1064] showed an IC50 (L1210 tumor cells) of 0.1 µg/mL (≈ 0.37 µM).

`COC(=O)COc1cccc(C=C2C(=O)C(SC)=CC2(O)CCCCOc2ccccc2)c1` (stereo not drawn) [drawing 1060] was tested, and the IC50 (L1210 tumor cells) was 0.83 µg/mL (≈ 1.77 µM).

`Cn1ccnc1SC1=CC(O)(CCCCOc2ccccc2)C(C(O)C=CC(O)CCCO)C1=O` (stereo not drawn) [drawing 1066] showed an IC50 (L1210 tumor cells) of 0.32 µg/mL (≈ 0.637 µM).

With `CSC1=CC(O)(CCCCOc2ccccc2)/C(=C/C=C/C(O)CCCO)C1=O` (stereo not drawn) [drawing 1106, 2-methylthio-5-[( -- Z)-4,7-dihydroxy-2-heptenylidene]-4-(4-phenoxybutyl)-4-hydroxy-2-cyclopentenone] the ALP ([2]; 10^-6 M) was 1.12 OD 415 nm/dish, the Ca ([2]; 10^-6 M) was 168 μg/dish and the ALP ([2]; 10^-7 M) was 0.48 ± 0.08 OD 415 nm/dish. It also gave a P ([2]; 10^-7 M) of 63 ± 6 μg/dish, a Ca ([2]; 10^-7 M) of 111 ± 9 μg/dish and an ALP ([2]; 10^-8 M) of 0.28 ± 0.06 OD 415 nm/dish. For the same molecule, the P ([2]; 10^-8 M) was 47 ± 6 μg/dish and the Ca ([2]; 10^-8 M) was 84 ± 10 μg/dish.

Work on `CCOc1ccc2nc(SC3=CC(O)(CCCCOc4ccccc4)C(=CC=CC(O)CCCO)C3=O)sc2c1` (stereo not drawn) [drawing 1061] yielded an IC50 (L1210 tumor cells) of 0.02 µg/mL (≈ 0.0344 µM).

`O=C1C(SC2CCCCC2)=CC(O)(CCCCOc2ccccc2)C1=CC=CC(O)CCCO` (stereo not drawn) [drawing 1059] was tested, and the IC50 (L1210 tumor cells) was 0.78 µg/mL (≈ 1.6 µM).
